Reference: patent US20160009752A1, “[…]-OXIMINO-AMINOALKYLETHERS AND PROCESS FOR PREPARATION THEREOF, USEFUL AS ANTIDIABETIC AND […] AGENTS” (COUNCIL OF SCIENTIFIC & INDUSTRIAL RESEARCH, priority 2013, published 2016)

Tested on: L6 myotubes
Assay: 2-3H-deoxyglucose uptake by skeletal muscle cells
Type: cell-based, rat
Conditions: for 2-deoxyglucose uptake, fold vs. control: 16 h
Method: The fold increase in 2-deoxy-glucose uptake in the presence of test compound by rat skeletal muscle cells (L-6 myotubes) was considered as % antihyperglycemic activity of the test compound which was carried out as follows. L6 myotubes were incubated with increasing concentrations of 14b and the standard drug rosiglitazone (10 μM) for 16 h. After incubation glucose uptake was assessed for 5 min in HEPES-buffered saline [140 mM NaCl, 20 mM HEPES, 5 mM KCl, 2.5 mM MgSO4, 1 mM CaCl2 (pH 7.4)] containing 10 μM 2-deoxyglucose (0.5 μCi/ml 2-[^3H]-deoxyglucose) at room temperature. Subsequently cells were rinsed with an ice-cold solution containing 0.9% NaCl and 20 mM D-glucose. To quantify the radioactivity incorporated, cells were lysed with 0.05 N NaOH and lysates were counted with scintillation fluid in a β-counter. Nonspecific uptake was determined in the presence of cytochalasin B (50 μM) during the assay, and these values were subtracted from all other values. Glucose uptake was measured in triplicate and normalized to total protein, was expressed as fold increase with respect to control cells.

C/C(=N\OCCN1CCCCC1)[C@H]1CC[C@H]2[C@@H]3CC=C4C[C@@H](O)CC[C@]4(C)[C@H]3CC[C@]12C [Compound 14b, 3β-Hydroxy-pregna-5-en-20-one-O-(2-piperidin-1-yl-ethyl)-oxime]
2-deoxyglucose uptake, fold vs. control (1.0 μM): 1.59±0.28 fold
2-deoxyglucose uptake, fold vs. control (2.5 μM): 2.61±0.45 fold
2-deoxyglucose uptake, fold vs. control (5.0 μM): 2.88±0.74 fold
2-deoxyglucose uptake, fold vs. control (10 μM): 3.37±0.12 fold
glucose uptake in presence of cytochalasin-B (cytochalasin-B 50 μM added to transport solution): completely blocked
minimum concentration increasing glucose uptake to a significant level (p<0.05): 1.0 µM
